# Literature values as cited in patent US9763892B2, “Immediate release phospholipid-coated therapeutic agent nanoparticles and related methods” (Autotelic LLC, priority 2015, dated 2017).
# Details: phospholipid used for PTX-NPs
row,Structure (SMILES),Transition Temp. [°C]
1,"CCCCCCCCCCCCCCCC(=O)OC[C@H](COP(=O)([O-])OCC[N+](C)(C)C)OC(=O)CCCCCCCCCCCCCCC [PC 16, 1,2-dipalmitoyl-sn-glycero-3-phosphocholine]",41
2,"CCCCCCCCCCCC(=O)OC[C@H](COP(=O)([O-])OCC[N+](C)(C)C)OC(=O)CCCCCCCCCCC [PC-12, 1,2-dilauroyl-sn-glycero-3-phosphocholine]",−2
3,"CCCCCCCCCCCCCC(=O)OC[C@H](COP(=O)([O-])OCC[N+](C)(C)C)OC(=O)CCCCCCCCCCCCC [PC-14, 1,2-dimyristoyl-sn-glycero-3-phosphocholine]",24
4,"CCCCCCCC/C=C\CCCCCCCC(=O)OC[C@H](COP(=O)([O-])OCC[N+](C)(C)C)OC(=O)CCCCCCC/C=C\CCCCCCCC [PC-18 (unsaturated), 1,2-dioleoyl-sn-glycero-3-phosphocholine]",−17
5,"CCCCCCCCCCCCCCCCCCCC(=O)OC[C@H](COP(=O)([O-])OCC[N+](C)(C)C)OC(=O)CCCCCCCCCCCCCCCCCCC [PC-20, 1,2-diarachidoyl-sn-glycero-3-phosphocholine]",66
